Measured values reported in PMC6366416, “Synthesis and in vitro anticancer activity of certain novel 1-(2-methyl-6-arylpyridin-3-yl)-3-phenylureas as apoptosis-inducing agents” (Journal of Enzyme Inhibition and Medicinal Chemistry, 2019).

Key:
SF-295 = experiment: NCI one-dose SRB growth inhibition; format: cell-based; conditions: Homo sapiens, CNS Cancer, 48 h, read-out: GI% SF-295
Experimental: (§1) The antitumor assay was performed according to the protocol of the Drug Evaluation Branch, NCI, Bethesda[24–26]. A 48 h drug exposure protocol was adopted, and sulforhodamine B (SRB) assay[27] was utilized to assess the cell growth and viability, as reported earlier[17]^,[28].
(§2) The structures of all the newly synthesized pyridines 5a–l were submitted to the National Cancer Institute (NCI) Developmental Therapeutic Program (www.dtp.nci.nih.gov). […] Nine different types of cancer were tested in this assay: colon, ovarian, prostate, leukemia, melanoma, CNS, renal, breast and lung cancers. A 48 h drug exposure protocol was adopted, and sulforhodamine B (SRB) assay[27] was utilized to assess the cell growth and viability.

OVCAR-8 = experiment: NCI one-dose SRB growth inhibition; format: cell-based; conditions: Homo sapiens, Ovarian Cancer, 48 h, read-out: GI% OVCAR-8
Experimental: as §1, §2

KM12 = experiment: NCI one-dose SRB growth inhibition; format: cell-based; conditions: Homo sapiens, Colon Cancer, 48 h, read-out: GI% KM12
Experimental: as §1, §2

SK-MEL-28 = experiment: NCI one-dose SRB growth inhibition; format: cell-based; conditions: Homo sapiens, Melanoma, 48 h, read-out: GI% SK-MEL-28
Experimental: as §1, §2

OVCAR-3 = experiment: NCI one-dose SRB growth inhibition; format: cell-based; conditions: Homo sapiens, OVCAR-3, 48 h, Ovarian Cancer, read-out: GI% OVCAR-3
Experimental: as §1, §2

MCF7 = experiment: NCI one-dose SRB growth inhibition; format: cell-based; conditions: Homo sapiens, Breast Cancer, 48 h, read-out: GI% MCF7
Experimental: as §1, §2

UACC-257 = experiment: NCI one-dose SRB growth inhibition; format: cell-based; conditions: Homo sapiens, UACC-257, read-out: GI% UACC-257, Melanoma, 48 h
Experimental: as §1, §2

SN12C = experiment: NCI one-dose SRB growth inhibition; format: cell-based; conditions: Homo sapiens, Renal Cancer, 48 h, read-out: GI% SN12C
Experimental: as §1, §2

BT-549 = experiment: NCI one-dose SRB growth inhibition; format: cell-based; conditions: Homo sapiens, Breast Cancer, 48 h, read-out: GI% BT-549
Experimental: as §1, §2

SK-OV-3 = experiment: NCI one-dose SRB growth inhibition; format: cell-based; conditions: Homo sapiens, Ovarian Cancer, 48 h, read-out: GI% SK-OV-3
Experimental: as §1, §2

HOP-92 = experiment: NCI one-dose SRB growth inhibition; format: cell-based; conditions: Homo sapiens, Non-Small Cell Lung Cancer, 48 h, read-out: GI% HOP-92
Experimental: as §1, §2

SNB-19 = experiment: NCI one-dose SRB growth inhibition; format: cell-based; conditions: Homo sapiens, CNS Cancer, 48 h, read-out: GI% SNB-19
Experimental: as §1, §2

NCI/ADR-RES = experiment: NCI one-dose SRB growth inhibition; format: cell-based; conditions: Homo sapiens, Ovarian Cancer, 48 h, read-out: GI% NCI/ADR-RES
Experimental: as §1, §2

MDA-MB-468 = experiment: NCI one-dose SRB growth inhibition; format: cell-based; conditions: Homo sapiens, Breast Cancer, 48 h, read-out: GI% MDA-MB-468
Experimental: as §1, §2

RPMI-8226 = experiment: NCI one-dose SRB growth inhibition; format: cell-based; conditions: Homo sapiens, RPMI-8226, 48 h, Leukemia, read-out: GI% RPMI-8226
Experimental: as §1, §2

MDA-MB-435 = experiment: NCI one-dose SRB growth inhibition; format: cell-based; conditions: Homo sapiens, Melanoma, 48 h, read-out: GI% MDA-MB-435
Experimental: as §1, §2

SW-620 = experiment: NCI one-dose SRB growth inhibition; format: cell-based; conditions: Homo sapiens, Colon Cancer, 48 h, read-out: GI% SW-620
Experimental: as §1, §2

COLO 205 = experiment: NCI one-dose SRB growth inhibition; format: cell-based; conditions: Homo sapiens, Colon Cancer, 48 h, read-out: GI% COLO 205
Experimental: as §1, §2

U251 = experiment: NCI one-dose SRB growth inhibition; format: cell-based; conditions: Homo sapiens, U-251, CNS Cancer, 48 h, read-out: GI% U251
Experimental: as §1, §2

TK-10 = experiment: NCI one-dose SRB growth inhibition; format: cell-based; conditions: Homo sapiens, Renal Cancer, 48 h, read-out: GI% TK-10
Experimental: as §1, §2

SK-MEL-5 = experiment: NCI one-dose SRB growth inhibition; format: cell-based; conditions: Homo sapiens, Melanoma, 48 h, read-out: GI% SK-MEL-5
Experimental: as §1, §2

RXF 393 = experiment: NCI one-dose SRB growth inhibition; format: cell-based; conditions: Homo sapiens, Renal Cancer, 48 h, read-out: GI% RXF 393
Experimental: as §1, §2

[1] = test system: 60 cancer cell lines (NCI, USA); experiment: NCI one-dose SRB assay, whole panel; format: cell-based, human; conditions: 10 μM; cell lines with GI% higher than 10%
Experimental: as §1, §2

WI-38 cell line = experiment: MTT cytotoxicity towards non-tumorigenic cells; format: cell-based, human; conditions: for IC50: WI-38, MTT, non-tumorigenic human lung fibroblast, mean ± SD of three experiments; for S. I. WI-38/A549: selectivity index, IC50 WI-38 / IC50 A549
Experimental: The cytotoxic activity of all synthesized pyridines 5a–l were assessed against non-tumorigenic human lung fibroblast WI-38 cell line to investigate their safety, using the MTT colorimetric assay.

HCT-116 cell line = experiment: MTT anti-proliferative assay; format: cell-based; conditions: Homo sapiens, 48 h of incubation, mean ± SD of three experiments
Experimental: (§3) A549 (non-small cell lung cancer cell line) and HCT-116 (human colon cancer cell line), were obtained from American Type Culture Collection (Manassas, VA, USA). The cells were maintained in Dulbecco’s Modified Eagle’s Medium (DMEM) (Sigma-Aldrich, St. Louis, MO), and supplemented with 10% heat-inactivated FBS (Hyclone), 10 μg/mL of insulin (Manufacturer, Sigma, St. Louis, MO, USA), and 1% penicillin-streptomycin. MTT assay[29] was adopted to assess the in vitro antitumor activity of the newly synthesized pyridines 5a–l according to the reported procedures, using Doxorubicin as a standard treatment. Experimental conditions were tested using three replicates (three wells of the 96-well plate per experimental condition) and all experiments were carried out in triplicates. IC50 values were calculated by the use of the equation for Boltzman sigmoidal concentration–response curve using the nonlinear regression fitting models by Graph Pad, Prism version 5 (GraphPad Software Inc., La Jolla, CA).
(§4) All newly synthesized pyridines 5a–l were examined for their anti-proliferative activity towards two cancer cell lines: non-small cell lung cancer A549 cell line and colon cancer HCT-116 cell line. The MTT colorimetric assay was adopted to assess the anti-proliferative activity as described by Mosmann[29]. Doxorubicin was used as a control in this assay.

A549 cell line = experiment: MTT anti-proliferative assay; format: cell-based; conditions: Homo sapiens, 48 h of incubation, mean ± SD of three experiments
Experimental: as §3, §4

| SMILES | melting point [°C] | inhibition at 10 µM (SF-295) [%] | inhibition at 10 µM (OVCAR-8) [%] | inhibition at 10 µM (KM12) [%] | inhibition at 10 µM (SK-MEL-28) [%] | inhibition at 10 µM (OVCAR-3) [%] | inhibition at 10 µM (MCF7) [%] | inhibition at 10 µM (UACC-257) [%] | inhibition at 10 µM (SN12C) [%] | inhibition at 10 µM (BT-549) [%] | inhibition at 10 µM (SK-OV-3) [%] | inhibition at 10 µM (HOP-92) [%] | inhibition at 10 µM (SNB-19) [%] | inhibition at 10 µM (NCI/ADR-RES) [%] | inhibition at 10 µM (MDA-MB-468) [%] | inhibition at 10 µM (RPMI-8226) [%] | inhibition at 10 µM (MDA-MB-435) [%] | inhibition at 10 µM (SW-620) [%] | inhibition at 10 µM (COLO 205) [%] | inhibition at 10 µM (U251) [%] | other results |
| --- | --- | --- | --- | --- | --- | --- | --- | --- | --- | --- | --- | --- | --- | --- | --- | --- | --- | --- | --- | --- | --- |
| Cc1nc(-c2cccs2)ccc1NC(=O)Nc1ccc(F)cc1 [Compound 5h, 1-(4-Fluorophenyl)-3-(2-methyl-6-(thiophen-2-yl)pyridin-3-yl)urea] | 217 to 219 | < 10 | < 10 | 18 | < 10 | < 10 | 22 | 20 | < 10 | < 10 | < 10 | < 10 | < 10 | < 10 | 16 | 24 | < 10 | < 10 | < 10 | < 10 | inhibition at 10 µM (TK-10): < 10%; inhibition at 10 µM (SK-MEL-5): 12%; inhibition at 10 µM (RXF 393): < 10%; Sensitive cell lines no. [1]: 23; IC50 (WI-38 cell line): 143 ± 8.38 µM; S. I. WI-38/A549 (WI-38 cell line): 13.4; IC50 (HCT-116 cell line): 8.25 ± 0.84 µM; IC50 (A549 cell line): 10.6 ± 0.86 µM |
| CCOC(=O)c1ccc(NC(=O)Nc2ccc(-c3cccs3)nc2C)cc1 [Compound 5j, Ethyl 4-(3-(2-methyl-6-(thiophen-2-yl)pyridin-3-yl)ureido)benzoate] | 203 to 204 | < 10 | < 10 | 18 | < 10 | < 10 | 21 | < 10 | < 10 | 15 | < 10 | < 10 | < 10 | < 10 | 13 | 56 | < 10 | < 10 | < 10 | 21 | inhibition at 10 µM (TK-10): < 10%; inhibition at 10 µM (SK-MEL-5): 22%; inhibition at 10 µM (RXF 393): < 10%; Sensitive cell lines no. [1]: 24; IC50 (WI-38 cell line): 107 ± 7.02 µM; S. I. WI-38/A549 (WI-38 cell line): 13.3; IC50 (HCT-116 cell line): 9.38 ± 0.67 µM; IC50 (A549 cell line): 8.04 ± 0.59 µM |
| Cc1nc(-c2ccc(Cl)cc2)ccc1NC(=O)Nc1ccc2c(c1)OCO2 [Compound 5g, 1-(Benzo[d][1,3]dioxol-5-yl)-3-(6-(4-chlorophenyl)-2-methylpyridin-3-yl)urea] | 271 to 273 | < 10 | < 10 | < 10 | < 10 | < 10 | < 10 | 25 | < 10 | < 10 | < 10 | < 10 | < 10 | < 10 | < 10 | < 10 | < 10 | < 10 | < 10 | < 10 | inhibition at 10 µM (TK-10): < 10%; inhibition at 10 µM (SK-MEL-5): 17%; inhibition at 10 µM (RXF 393): < 10%; Sensitive cell lines no. [1]: 12; IC50 (WI-38 cell line): 63.5 ± 5.08 µM; S. I. WI-38/A549 (WI-38 cell line): 9.4; IC50 (A549 cell line): 6.72 ± 0.38 µM |
| Cc1nc(-c2cccs2)ccc1NC(=O)Nc1ccc(Cl)cc1 [Compound 5i, 1-(4-Chlorophenyl)-3-(2-methyl-6-(thiophen-2-yl)pyridin-3-yl)urea] | 234 to 236 | < 10 | < 10 | < 10 | < 10 | < 10 | 12 | 23 | < 10 | < 10 | < 10 | < 10 | < 10 | < 10 | 17 | < 10 | < 10 | < 10 | < 10 | < 10 | inhibition at 10 µM (TK-10): < 10%; inhibition at 10 µM (SK-MEL-5): < 10%; inhibition at 10 µM (RXF 393): < 10%; Sensitive cell lines no. [1]: 9; IC50 (WI-38 cell line): 129 ± 12 µM; S. I. WI-38/A549 (WI-38 cell line): 14.8; IC50 (A549 cell line): 8.73 ± 0.71 µM |
| CCOC(=O)c1ccc(NC(=O)Nc2ccc(-c3ccc(F)cc3)nc2C)cc1 [Compound 5c, Ethyl 4-(3-(6-(4-fluorophenyl)-2-methylpyridin-3-yl)ureido)benzoate] | 209 to 211 | < 10 | < 10 | < 10 | < 10 | < 10 | 20 | 29 | < 10 | < 10 | < 10 | < 10 | < 10 | < 10 | < 10 | 13 | < 10 | < 10 | < 10 | < 10 | inhibition at 10 µM (TK-10): < 10%; inhibition at 10 µM (SK-MEL-5): 38%; inhibition at 10 µM (RXF 393): < 10%; Sensitive cell lines no. [1]: 13; IC50 (WI-38 cell line): 123 ± 10.2 µM; S. I. WI-38/A549 (WI-38 cell line): 12.8; IC50 (A549 cell line): 9.61 ± 1.03 µM |
